Patent publication US20070123466A1, “Method of treating recurrent miscarriages” (New York Society for the Ruptured and Crippled Maintaining …, priority 2003, published 2007)

Key:
Type in all cases: in vivo, mouse
DBA/2-mated CBA/J mice = test: Fetal resorption in DBA/2-mated CBA/J mice, murine model of spontaneous recurrent miscarriage
Protocol: Female mice were allowed to mate with previously isolated male mice. The groups in the present experiment comprised 7-20 animals, one group of DBA/2-mated CBA/J mice and two controls (CBA×Balb/c and Balb/c×Balb/c). After mating, the females were checked daily until the presence of a vaginal plug was confirmed (this time point was then defined as day 0.5 of pregnancy). The mice were sacrificed 15 days post-conception. Uteri were dissected and the frequency of fetal resorption was determined as the number of resorptions divided by total number of formed fetuses and resorptions. Resorption sites, resulting from the loss of a previously viable fetus, are easily identifiable by visual inspection.
Mice were mated as described above, and sacrificed on day 8.5 post-conception. Sections of decidual tissue from CBA/J×Balb/c were incubated with an antibody to mouse C3, and followed by rabbit anti-goat IgG conjugated with HRP (horseradish peroxidase) and staining.
This experiment was carried out to investigate if blockade of complement activation would prevent fetal loss in the murine model of miscarriage. In these experiments, DBA/2-mated CBA/J pregnant mice were treated with three different targeted inhibitors of complement activation.
Crry-Ig. Complement receptor 1-related gene/protein y (Crry) inhibits C3 convertase activity. The Crry used in the experiments was Crry-Ig, which is a recombinant soluble form of Crry fused to the hinge, CH2, and CH3 domains of mouse IgG1, prepared as described in Quigg et al., J Immunol 1998;160:4553-4560. Crry-Ig blocks activation of C3 by both the classical and alternative pathways, thereby preventing all complement effector activities. Pregnant DBA/2-mated CBA/J mice were treated with 3 mg Crry-Ig, administered i.p. on days 8, 10 and 12.
Monoclonal anti-C5 mAb. Also tested was an antibody against C5, which prevents the cleavage of C5. […]
To inhibit factor B, mice were injected on days 7 through 13 of pregnancy with mAb1379 (2 mg intraperitoneally) or with murine IgG as a control. Fetal resorption frequency was calculated on day 15 of pregnancy.

[1] = test system: pregnant mice treated with aPL-IgG; test: aPL antibody-induced pregnancy loss, murine pregnancy model of APS
[2] = test system: C3 deposition in decidual tissue; test: Immunohistochemistry of deciduas (C3, human IgG, granulocytes); conditions: aPL-IgG treated mice that also received the agent
From the text: (§1) Immunohistochemistry. […] Sections were counterstained with hematoxylin.
as §1

[3] = mice given aPL-IgG 10 mg i.p. days 8 and 12 plus the agent

Substance: AcPhe(L-ornithine-Pro-D-cyclohexylalanine-Trp-Arg) [C5aR-AP]
- fetal resorption rate (DBA/2-mated CBA/J mice; DBA/2-mated CBA/J mice, 100 μg i.p. on day 8, sacrificed day 15): about 7%
- fetal loss / pregnancy loss (DBA/2-mated CBA/J mice; DBA/2-mated CBA/J mice, inhibitor i.p. during pregnancy, fetal resorption day 15): prevented fetal loss
- fetuses and resorptions in uterus (DBA/2-mated CBA/J mice; uterus from treated DBA/2-mated CBA/J mouse, day 15): 6 larger fetuses with decidua and no resorptions
- aPL antibody-induced growth restriction [1, 3]: prevented
- aPL antibody-induced pregnancy loss (fetal resorption) [1, 3]: prevented
- frequency of fetal resorption in the absence of aPL antibodies ([1]; mice that received NH-IgG / no aPL antibodies): had no effect
- C3 deposition in decidual tissue [2]: minimal C3 deposition
- neutrophil infiltration / inflammation in deciduas [2]: no evidence of inflammation
